Measured values reported in the supplement of paper PMC11061612.

How the values were obtained:
Experiment in all cases: Bliss excess, mean over the matrix (fraction); higher = more synergy
[1] = system: CAL-120 (Breast Carcinoma)
Summary of the method: (§1)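 After 24 hours at 37°C and 5% CO2 in 1536-well plates, cells in DMEM/F12 or RPMI plus 10% FBS received two-drug dose matrices for 72 hours. Viability came from CellTiter-Glo 2.0 luminescence and was scaled as inhibition, anchored at 0 by vehicle wells and at 1 by blank wells. Combination Emax is taken as the second-highest inhibition in the matrix, and Bliss excess as the observed combination effect less EA + EB − EA·EB, with EA and EB the single-agent effects.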

[2] = system: A2058 (Melanoma)
Summary of the method: as §1

[3] = system: RERF-GC-1B (Gastric Carcinoma)
Summary of the method: as §1

[4] = system: NCI-H2342 (Lung Adenocarcinoma)
Summary of the method: as §1

[5] = system: KE-37 (T-Lymphoblastic Leukemia)
Summary of the method: as §1

[6] = system: LK-2 (Squamous Cell Lung Carcinoma)
Summary of the method: as §1

[7] = system: LXF-289 (Lung Adenocarcinoma)
Summary of the method: as §1

[8] = system: OPM-2 (Plasma Cell Myeloma)
Summary of the method: as §1

[9] = system: LB996-RCC (Kidney Carcinoma)
Summary of the method: as §1

[10] = system: PANC-03-27 (Pancreatic Carcinoma)
Summary of the method: as §1

[11] = system: PC-3_[JPC-3] (Lung Adenocarcinoma)
Summary of the method: as §1

[12] = system: CAL-62 (Thyroid Gland Carcinoma)
Summary of the method: as §1

[13] = system: L-1236 (Hodgkin's Lymphoma)
Summary of the method: as §1

[14] = system: SHP-77 (Small Cell Lung Carcinoma)
Summary of the method: as §1

[15] = system: RCM-1 (Colorectal Carcinoma)
Summary of the method: as §1

[16] = system: COLO-680N (Esophageal Squamous Cell Carcinoma)
Summary of the method: as §1

[17] = system: RERF-LC-Sq1 (Squamous Cell Lung Carcinoma)
Summary of the method: as §1

[18] = system: TE-8 (Esophageal Squamous Cell Carcinoma)
Summary of the method: as §1

[19] = system: 23132-87 (Gastric Carcinoma)
Summary of the method: as §1

| SMILES | Bliss excess [1] | Bliss excess [2] | Bliss excess [3] | Bliss excess [4] | Bliss excess [5] | Bliss excess [6] | Bliss excess [7] | Bliss excess [8] | Bliss excess [9] | Bliss excess [10] | Bliss excess [11] | Bliss excess [12] | Bliss excess [13] | Bliss excess [14] | Bliss excess [15] | Bliss excess [16] | Bliss excess [17] | Bliss excess [18] | Bliss excess [19] |
| --- | --- | --- | --- | --- | --- | --- | --- | --- | --- | --- | --- | --- | --- | --- | --- | --- | --- | --- | --- |
| CN(C)CCCOc1ccc(-c2ccc3ncc4c(c3c2)n(C2CCOCC2)c(=O)n4C)cn1 [AZD0156] + C[C@@H]1COCCN1C2=NC(=NC(=C2)C3(CC3)[S@](=N)(=O)C)C4=C5C=CNC5=NC=C4 [AZD6738] (first compound max 1 µM, 7x7, partner max 10 µM) | 0.0142 | -0.0135 | 0.0249 | -0.0487 | 0.0459 | -0.0261 | 0.0318 | 0.0261 | 0.0089 | -0.0078 | -0.006 | -0.0221 | -0.0315 | 0.0535 | -0.0343 | -0.0311 | 0.0544 | 0.0087 | 0.0549 |
| COc1cccc(OCCCN)c1-c1cc(Nc2cnc(C#N)cn2)n[nH]1 [Prexasertib] + O=C(c1cc(Cc2n[nH]c(=O)c3ccccc23)ccc1F)N1CCN(C(=O)C2CC2)CC1 [Olaparib] (first compound max 1 µM, 7x7, partner max 10 µM) | -0.0552 | 0.0158 | -0.0275 | -0.0509 | 0.0073 | -0.0249 | -0.0569 | -0.0628 | -0.0145 | -0.0102 | -0.0525 | -0.0031 | -0.0391 | -0.0791 | -0.196 | -0.0652 | -0.0373 | -0.075 | -0.0503 |
| Cc1cc2ncnn2cc1Nc1ncc2c(n1)n(C1CCOCC1)c(=O)n2C [AZD7648] + CN(C)CCCOc1ccc(-c2ccc3ncc4c(c3c2)n(C2CCOCC2)c(=O)n4C)cn1 [AZD0156] (first compound max 10 µM, 7x7, partner max 1 µM) | -0.0197 | -0.001 | -0.0141 | -0.0237 | 0.0492 | -0.0036 | 0.034 | -0.0303 | -0.0542 | 0.0421 | -0.0019 | 0.0145 | 0.0025 | -0.0017 | -0.0041 | -0.0078 | 0.0114 | -0.0453 | -0.0108 |
| COc1cc2c(cc1OCCCCCOc1cc3c(cc1OC)C(=O)N1C=C(C)C[C@H]1C=N3)N=C[C@@H]1CC(C)=CN1C2=O [SG3199] + O=C(c1cc(Cc2n[nH]c(=O)c3ccccc23)ccc1F)N1CCN(C(=O)C2CC2)CC1 [Olaparib] (first compound max 0.001 µM, 7x7, partner max 10 µM) | -0.0329 | -0.0172 | 0.0263 | -0.0569 | 0.0055 | -0.0137 | -0.0358 | -0.047 | 0.0077 | -0.062 | -0.0368 | -0.0342 | -0.0387 | -0.0137 | -0.0371 | -0.043 | 0.0049 | -0.049 | 0.0217 |
| COc1cccc(OCCCN)c1-c1cc(Nc2cnc(C#N)cn2)n[nH]1 [Prexasertib] + CN(C)CCCOc1ccc(-c2ccc3ncc4c(c3c2)n(C2CCOCC2)c(=O)n4C)cn1 [AZD0156] (first compound max 1 µM, 7x7, partner max 1 µM) | 0.0088 | 0.007 | 0.0049 | -0.0272 | -0.0022 | -0.0181 | 0.0113 | 0.0204 | 0.0028 | -0.0704 | -0.0526 | -0.0364 | -0.0649 | 0.0107 | -0.0358 | -0.0393 | -0.0209 | -0.0033 | -0.0009 |
| Cc1cc2ncnn2cc1Nc1ncc2c(n1)n(C1CCOCC1)c(=O)n2C [AZD7648] + C=CCn1c(=O)c2cnc(Nc3ccc(N4CCN(C)CC4)cc3)nc2n1-c1cccc(C(C)(C)O)n1 [AZD1775] (first compound max 10 µM, partner max 1 µM) | 0.0463 | 0.0194 | -0.0936 | -0.0023 | -0.0108 | -0.0018 | -0.0396 | -0.0006 | -0.0252 | -0.048 | 0.0063 | 0.0057 | -0.0686 | -0.0798 | 0.0248 | -0.012 | 0.0053 | 0.0308 | -0.0401 |
| CCN(CCO)CCCOc1ccc2c(Nc3cc(CC(=O)Nc4cccc(F)c4)[nH]n3)ncnc2c1 [AZD2811] + O=C(c1cc(Cc2n[nH]c(=O)c3ccccc23)ccc1F)N1CCN(C(=O)C2CC2)CC1 [Olaparib] (first compound max 1 µM, 7x7, partner max 10 µM) | 0.0019 | 0.0093 | -0.0572 | -0.02 | -0.0019 | -0.0329 | 0.0677 | 0.015 | 0.025 | -0.0161 | -0.0067 | 0.0353 | -0.0232 | -0.0191 | -0.04 | -0.0439 | 0.0361 | -0.013 | 0.0143 |
| CN(C)CCCOc1ccc(-c2ccc3ncc4c(c3c2)n(C2CCOCC2)c(=O)n4C)cn1 [AZD0156] + C=CCn1c(=O)c2cnc(Nc3ccc(N4CCN(C)CC4)cc3)nc2n1-c1cccc(C(C)(C)O)n1 [AZD1775] (first compound max 1 µM, partner max 1 µM) | -0.0638 | -0.0313 | -0.0318 | -0.0612 | 0.0241 | -0.048 | 0.0066 | -0.0607 | -0.0219 | -0.063 | -0.0018 | -0.0006 | -0.0514 | -0.0219 | -0.0621 | -0.0252 | 0.0224 | -0.0104 | 0.0164 |
| Cc1cc2ncnn2cc1Nc1ncc2c(n1)n(C1CCOCC1)c(=O)n2C [AZD7648] + O=C(c1cc(Cc2n[nH]c(=O)c3ccccc23)ccc1F)N1CCN(C(=O)C2CC2)CC1 [Olaparib] (first compound max 10 µM, 7x7, partner max 10 µM) | -0.0322 | -0.0319 | -0.076 | -0.0548 | 0.0309 | -0.0584 | -0.0504 | -0.0373 | -0.0152 | -0.0149 | -0.0148 | -0.03 | -0.0394 | -0.0585 | -0.0789 | -0.0435 | -0.0095 | -0.0413 | 0.003 |
| C[C@@H]1COCCN1c1cc(C2([S@](C)(=N)=O)CC2)nc(-c2ccnc3[nH]ccc23)n1 [AZD6738] + O=C(c1cc(Cc2n[nH]c(=O)c3ccccc23)ccc1F)N1CCN(C(=O)C2CC2)CC1 [Olaparib] (first compound max 10 µM, 7x7, partner max 10 µM) | 0.0364 | 0.0033 | -0.0439 | -0.0089 | 0.0288 | 0.0091 | -0.0371 | -0.0339 | 0.0143 | 0.0141 | 0.0112 | 0.0428 | -0.0033 | 0.0804 | -0.101 | 0.0109 | -0.0101 | -0.0218 | 0.0507 |
| Cc1cc2ncnn2cc1Nc1ncc2c(n1)n(C1CCOCC1)c(=O)n2C [AZD7648] + C[C@@H]1COCCN1C2=NC(=NC(=C2)C3(CC3)[S@](=N)(=O)C)C4=C5C=CNC5=NC=C4 [AZD6738] (first compound max 10 µM, 7x7, partner max 10 µM) | 0.0192 | 0.024 | 0.0094 | 0.0271 | 0.0286 | 0.0147 | 0.0315 | 0.0254 | -0.0199 | 0.0016 | 0.0627 | 0.0264 | 0.0434 | -0.0139 | 0.0223 | 0.0237 | -0.0231 | -0.0122 | -0.0027 |
| COc1cccc(OCCCN)c1-c1cc(Nc2cnc(C#N)cn2)n[nH]1 [Prexasertib] + C=CCn1c(=O)c2cnc(Nc3ccc(N4CCN(C)CC4)cc3)nc2n1-c1cccc(C(C)(C)O)n1 [AZD1775] (first compound max 1 µM, partner max 1 µM) | 0.0551 | 0.0994 | 0.049 | -0.0136 | 0.0311 | 0.0739 | 0.0418 | 0.0569 | 0.0427 | -0.0327 | 0.0258 | 0.137 | -0.0943 | 0.0413 | -0.0248 | -0.0054 | 0.0621 | 0.0893 | 0.0641 |
| COc1cccc(OCCCN)c1-c1cc(Nc2cnc(C#N)cn2)n[nH]1 [Prexasertib] + C[C@@H]1COCCN1C2=NC(=NC(=C2)C3(CC3)[S@](=N)(=O)C)C4=C5C=CNC5=NC=C4 [AZD6738] (first compound max 1 µM, 7x7, partner max 10 µM) | 0.0093 | 0.0232 | -0.119 | 0.0378 | 0.0043 | -0.0182 | -0.0228 | -0.0663 | 0.0355 | -0.0577 | 0.0576 | -0.005 | -0.0199 | 0.0645 | -0.0307 | 0.0342 | -0.0492 | -0.0122 | -0.0085 |
| C=CCn1c(=O)c2cnc(Nc3ccc(N4CCN(C)CC4)cc3)nc2n1-c1cccc(C(C)(C)O)n1 [AZD1775] + C[C@@H]1COCCN1C2=NC(=NC(=C2)C3(CC3)[S@](=N)(=O)C)C4=C5C=CNC5=NC=C4 [AZD6738] (first compound max 1 µM, partner max 10 µM) | 0.0021 | 0.0553 | 0.0634 | -0.0687 | 0.0552 | -0.0086 | 0.0266 | 0.0437 | 0.011 | -0.0426 | -0.0732 | -0.061 | -0.032 | 0.0598 | 0.0014 | 0.0196 | 0.0211 | 0.0126 | 0.083 |
| CCc1c2c(nc3ccc(O)cc13)-c1cc3c(c(=O)n1C2)COC(=O)[C@]3(O)CC [SN-38] + O=C(c1cc(Cc2n[nH]c(=O)c3ccccc23)ccc1F)N1CCN(C(=O)C2CC2)CC1 [Olaparib] (first compound max 0.3 µM, 7x7, partner max 10 µM) | 0.0417 | 0.038 | – | 0.0154 | 0.0357 | 0.128 | – | 0.0082 | -0.0651 | 0.0498 | 0.113 | 0.0139 | 0.0111 | 0.0235 | -0.0176 | 0.0012 | 0.0502 | 0.0202 | 0.0174 |
| C=CCn1c(=O)c2cnc(Nc3ccc(N4CCN(C)CC4)cc3)nc2n1-c1cccc(C(C)(C)O)n1 [AZD1775] + O=C(c1cc(Cc2n[nH]c(=O)c3ccccc23)ccc1F)N1CCN(C(=O)C2CC2)CC1 [Olaparib] (first compound max 1 µM, partner max 10 µM) | 0.0027 | -0.0049 | -0.0124 | -0.0372 | 0.0513 | -0.0148 | -0.0247 | -0.0561 | – | -0.032 | -0.0515 | 0.0017 | -0.0441 | -0.0436 | -0.0861 | -0.0482 | -0.0211 | -0.03 | -0.0282 |
